# Assay: gradient 5% acetonitrile 3 min, to 50% in 2 min, to 85% in 15 min, held 3 min, 100 µL/min
# Settings: column: Zorbax Extend-C18 2.1 x 50 mm; eluents: water / acetonitrile, 0.1% formic acid
# Procedure, shortened: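 Pure standards were analyzed in mixtures of ~100 molecules using HPLC coupled to a quadrupole time-of-flight mass spectrometer, in both positive and negative ionization mode. Separation used a Zorbax Extend-C18 column (2.1 × 50 mm, 1.8 μm) at 100 μL/min, with water and acetonitrile each containing 0.1% formic acid. Dead and dwell volumes were 40 μL and 900 μL, and data were collected over 3 months. Retention time was read from computationally picked adduct peaks, each inspected manually.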
row,RP-LC retention time [s],SMILES
1,929,Fc1ccc(Br)cc1-c1nc2ccc(Cl)cn2c1Nc1ccc2c(c1)OCCO2
2,768,Cc1ccc(C)c(NC(=O)C2CCN(S(=O)(=O)c3ccc4c(c3)CCCC(=O)N4)CC2)c1
3,1050,Cc1ccccc1-c1noc(Cn2c(=O)n(-c3ccccc3C)c(=O)c3sccc32)n1
4,630,O=C(CC1CCN(C(=O)c2ccc3oc(-c4ccccc4)nc3c2)CC1)NCCN1CCOCC1
5,1020,CC1CCN(c2cnn(CC(=O)Nc3cccc(Cl)c3F)c(=O)c2Cl)CC1
6,1020,COc1ccc(Cc2nnc(SCC(=O)Nc3nc(-c4ccccc4)c(C)s3)o2)cc1
7,712,COc1ccc(-n2nc3c(N4CCCC(C(=O)NCCc5ccco5)C4)nnc(C)c3c2C)cc1 (stereo not drawn)
8,844,Cc1nn2c(S(=O)(=O)NC3CCCCCC3)c(C)nc2s1
9,655,O=C(NCC1CCOCC1)c1ccc2c(c1)OCO2
10,809,Cc1c(C)n(-c2ccccc2)c2ncn(CC(=O)NCc3ccco3)c(=O)c12
11,857,O=C(c1cc2ccccc2[nH]1)N1CCCC(c2nnc(C(F)(F)F)o2)C1 (stereo not drawn)
12,730,CCn1ccc(NC(=O)NC2CCCC2)n1
13,579,COc1ncccc1C(=O)NCc1nnc(C)o1
14,701,Cc1ccc(-c2cc(N3CCOCC3)c3cc(NC(=O)C4CC4)ccc3n2)cc1
15,752,COc1ccc(-c2csc(NC(=O)/C=C/C(=O)O)n2)cc1
16,1190,O=C(Nc1c(C(=O)Nc2ccccc2F)oc2ccccc12)c1ccc(Br)o1
17,646,COc1cccc(CNC(=O)Cn2cnc3nc(N4CCC(C(=O)NC5CC5)CC4)sc3c2=O)c1
18,855,COc1ccc(C(=O)NC2(c3nc(C)no3)CCCCC2)c(C)c1
19,833,CCn1cc(S(=O)(=O)N2C[C@H]3CN(S(=O)(=O)c4cccc(C)c4)C[C@@H](C2)O3)cn1
20,639,COC(=O)Nc1ccc(CC(=O)NCC(F)(F)F)cc1
21,888,CC(C)C(=O)n1nc(-c2ccccc2)nc1N
22,643,Cc1ccc(CNC(=O)CSc2ccc(N3CCCC(C(=O)NC4CC4)C3)nn2)cc1 (stereo not drawn)

row,RP-LC retention time [s],SMILES
1,943,CCCn1cc(C2=CCN(C(=O)NC3CCCCC3)CC2)c2cccnc21
2,623,Cc1cccc(NC(=O)N2CCN(c3cc(C)nc(N4CCOCC4)n3)CC2)c1
3,658,Cc1ccc(Cl)cc1NC(=O)CN1CCN(c2ccc(F)cc2)CC1
4,731,O=C(Cn1nc2c(N3CCCCCC3)nccn2c1=O)Nc1cc(F)ccc1F
5,802,O=C(CSc1nnc2c(=O)n(-c3ccc(F)cc3)ccn12)c1ccc(F)cc1
6,743,COCCN1C(=O)[C@H]2CN(Cc3ccccc3OC(F)(F)F)C[C@H]2C1=O
7,760,O=C(NCC1CN(CC2CC2)CC12CCCCC2)Nc1cc(F)cc(F)c1 (stereo not drawn)
8,749,COc1cc([N+](=O)[O-])ccc1NC(=O)c1ccccc1S(C)(=O)=O
9,995,Cc1ccc(-c2nnc(-c3nc(NCc4ccco4)c4ccccc4n3)o2)cc1
10,671,O=C(NC1CCCCC1)c1ccc(Cn2cncn2)cc1
11,1080,Cc1ccccc1S(=O)(=O)N1CCC2(CC1)CC(OCC1CC1)CCO2 (stereo not drawn)
12,609,Cc1ncc([N+](=O)[O-])n1CC(C)O (stereo not drawn)
13,935,Cc1ccc(S(=O)(=O)CC(=O)Nc2nc(-c3ccc4c(c3)OCCO4)cs2)cc1
14,1370,COc1ccc(-n2c(=O)c(C(=O)Nc3ccc(F)c(Cl)c3)c(O)c3cccnc32)cc1
15,702,CN1C(=O)c2cc(C(=O)N3CCN(c4ncccn4)CC3)nn2CC1(C)C(=O)NC1CCCCC1 (stereo not drawn)
16,861,COc1ccc(CSc2nnc3c(S(=O)(=O)N4CCCCC4)cccn23)cc1
17,960,CCc1nc(-c2cc(S(=O)(=O)N3CCC(C(=O)N(CC)CC)CC3)c(C)s2)no1
18,958,Cc1ccc(CNc2nnc(-c3nc(C4CC4)no3)c3ccccc23)cc1
19,1130,CC1=NS(=O)(=O)N(Cc2ccccc2)C=C1C(=O)OCc1noc(-c2cccc(Cl)c2)n1
20,677,CCOC(=O)N1CCC(NC(=O)CCc2cc3cc(C)ccc3[nH]c2=O)CC1
21,842,Cc1ccc(C)c(NC(=O)NC2CCN(c3ccc(F)cc3)C2=O)c1 (stereo not drawn)
22,626,COc1cccc(CNC(=O)c2ccc3c(c2)nc2n3CCN(Cc3ccccn3)C2=O)c1

row,RP-LC retention time [s],SMILES
1,1040,COc1ccc(-c2nnc(COc3cccc(NC(=O)c4nn(C)c5ccccc45)c3)o2)cc1
2,829,CCNc1cc(C)nc(N2CCN(S(=O)(=O)c3ccc(-c4ccccc4)cc3)CC2)n1
3,532,CN(C)C[C@@H]1CN(c2ncccn2)C[C@H]1NC(=O)C1(C)CCOCC1
4,726,CCSc1nnc(NC(=O)CSc2nnc(-c3ccco3)o2)s1
5,724,CCNC(=O)C1CCN(Cc2cc3ccccc3n2Cc2ccc(C)cc2)CC1
6,676,O=C(CN1C(=O)C2CCCCN2c2ccc(C(=O)N3CCCC3)cc21)Nc1cccc(Cl)c1 (stereo not drawn)
7,820,CN(C)S(=O)(=O)c1ccc2c(c1)Cc1cc(S(=O)(=O)N(C)C)ccc1-2
8,866,CCNC(=O)N1CCCC(c2cccc(C(=O)NCc3ccc(C)c(C)c3)c2)C1 (stereo not drawn)
9,880,COCCn1nnnc1C1CC2(CCOCC2)C(=O)N1CCc1ccc(Cl)cc1 (stereo not drawn)
10,558,CS(=O)(=O)N1CCN(C(=O)c2nn(CC3CC3)c3c2CNCC3)CC1
11,660,Cc1ccc(C)c(S(=O)(=O)Nc2ccc(N3CCN(c4ccccn4)CC3)c(C(=O)O)c2)c1
12,799,O=S(=O)(NCc1cccnc1-c1ccc(F)cc1)c1ccc(Cl)cc1
13,691,CCOC(=O)N1CCN(Cc2c(O)ccc3ccccc23)CC1
14,786,COC(=O)c1c(NCc2ccccc2)c2cccc(Cl)c2[nH]c1=O
15,739,COC(=O)c1cc(OCC(=O)NCc2ccc3c(c2)OCO3)c2ccccc2n1
16,870,CCn1ccc(C(=O)N2CCCC2c2ccccc2C)n1 (stereo not drawn)
17,792,O=C(Nc1ccc2c(c1)OCCO2)N1CCCC(c2nnnn2-c2ccccc2)C1 (stereo not drawn)
18,911,CCn1c(=O)sc2cc(S(=O)(=O)N3CCC(C(=O)Nc4ccc(F)cc4C)CC3)ccc21
19,575,CCC(C)NC(=O)c1cc(NC(C)=O)cc2nc(C)ccc12 (stereo not drawn)
20,764,CCOC(=O)c1cnc2nc(C)ccc2c1Nc1cccc(Cl)c1F
21,756,CCOC(=O)c1cnc2nc(C)ccc2c1Nc1cccc(Br)c1
22,840,Cc1ccc2c(Nc3ccc(S(N)(=O)=O)cc3)c(C(=O)OC(C)C)cnc2n1

row,RP-LC retention time [s],SMILES
1,913,N#Cc1cccc(NC(=O)CN2CCc3[nH]c4c(F)c(Cl)ccc4c(=O)c3C2)c1
2,571,CCC(CN1CCOCC1)NC(=O)C1CCN(c2ccc(-c3cccs3)nn2)CC1 (stereo not drawn)
3,791,Cc1ccccc1NC(=O)N1CCC(n2cnc3c(Cl)cccc3c2=O)CC1
4,586,COc1ccccc1N1CCN(CCNC(=O)NCc2cccs2)CC1
5,624,O=C(Cn1ccnc1-c1ccnc(N2CCCCC2)c1)NC1CCCCC1
6,748,CCOCN(C(=O)Cn1c(C(C)O)nc2ccccc21)c1c(C)cccc1CC (stereo not drawn)
7,762,COc1ccc(OC)c(S(=O)(=O)N2C[C@@H](F)C[C@H]2C(=O)N2CCCCC2)c1
8,935,O=C(c1ccc(F)c(F)c1)N1CCC2(CC1)N=C(c1cccc(Br)c1)NO2
9,732,Cc1cccc(-c2ncccc2CNS(=O)(=O)c2ccccc2Cl)c1
10,914,Cc1nn(-c2ccccc2)c(C)c1S(=O)(=O)N1CCC(C(=O)Nc2ccc3c(c2)OCCO3)CC1
11,1210,O=c1c2cc(-c3ccc(F)cc3)nn2cnn1Cc1nc(-c2ccc(Br)cc2)no1
12,905,CC(C)(C)NC(=O)CN1c2ccc(F)cc2-c2ccccc2S1(=O)=O
13,650,CCC1CCCCN1C(=O)c1cnc2nc(C)ccc2c1Nc1ccccc1 (stereo not drawn)
14,703,COc1ccc(-c2noc(C3CCN(CC(=O)Nc4ccc5c(c4)OCO5)CC3)n2)cc1
15,888,CN(C)S(=O)(=O)c1ccc(C(=O)N2Cc3nn(C(C)(C)C)c(-n4cccc4)c3C2)cc1
16,944,Cc1ccc(-n2c(=O)c3c(cc(C)n3C)n(CC(=O)Nc3ccc(Br)cc3F)c2=O)cc1
17,854,CCCCC(=O)Nc1nnc(SCc2nnc(-c3ccccc3)o2)s1
18,927,COc1ccc(-n2ncc3c(=O)n(Cc4nc(-c5cc(OC)c(OC)c(OC)c5)no4)cnc32)cc1
19,678,CC(=O)Nc1ccc(NC(=O)Cn2nc(C(=O)N3CCCCC3)c3ccccc32)cc1
20,570,Cc1ccccc1CN1CCC2(CC1)CC(O)(c1ccccn1)CCO2 (stereo not drawn)
21,684,Cc1ccc(Cc2c(C)nc3c(C(=O)NCCCN4CCOCC4)cnn3c2C)cc1

row,SMILES,RP-LC retention time [s]
1,COc1ccccc1CNC(=O)CN1CCCC1=O,631

# From the METLIN SMRT retention time set (Domingo-Almenara et al. 2019)
